This note sets out measurements from patent US8207344B2, “GPR119 agonists” (Eli Lilly and Company, priority 2009, dated 2012).

In one series the target is T1, human GPR119 (Homo sapiens, UniProt Q8TDV5).
T1 construct: expressed in transfected cells
T1 sequence (Q8TDV5 1-335): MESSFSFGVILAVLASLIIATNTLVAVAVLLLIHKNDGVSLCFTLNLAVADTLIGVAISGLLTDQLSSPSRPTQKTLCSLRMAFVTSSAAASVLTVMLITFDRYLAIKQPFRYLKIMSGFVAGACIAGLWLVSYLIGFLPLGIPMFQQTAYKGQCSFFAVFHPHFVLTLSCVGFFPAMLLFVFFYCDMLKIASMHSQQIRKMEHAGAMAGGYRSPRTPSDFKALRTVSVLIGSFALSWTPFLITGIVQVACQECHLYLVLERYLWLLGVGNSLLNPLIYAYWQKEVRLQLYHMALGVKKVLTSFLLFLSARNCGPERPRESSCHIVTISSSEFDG
Description: Human GPR119 activity assay (cAMP HTRF in 293 T-REx cells expressing hGPR119). Type of series: cell-based. As to conditions: 293 T-REx cells expressing hGPR119, cAMP HTRF, 1 h incubation; read-out: EC50 (agonist concentration that gives 50% activation of the hGPR119 mediated cAMP increase). As to the method:
A stable cell line expressing human GPR119 off an inducible promoter is generated in 293 T-REx™ cells (Invitrogen). T-REx™ (Tetracycline-Regulated Expression) cell line stably expresses the tetracycline repressor protein and, therefore, allow for inducible expression of the gene of interest (GPR119) with doxycycline. Agonists to the human GPR119 receptor are characterized by measuring increases in the cAMP levels in 293 T-REx™ cells expressing hGPR119. 10,000 cells/well are seeded into a 96-well plate and cultured for 24 h in DMEM supplemented with 10% fetal bovine serum, 15 μg/mL Blasticidin and 200 μg/mL Hygromycin B. Next day, cells are stimulated with 1 ng/mL Doxycycline in DMEM with no further addition of Hygromycin B and Blasticidin. cAMP assay is performed after 18 h incubation with doxycycline. cAMP is determined using the cAMP HiRange HTRF assay (Cisbo International). Cells are washed with PBS and pre-incubated for 15 min with PBS supplemented with 2 mM glucose, 0.25 mM IBMX and 0.1% BSA. Test compounds diluted in the pre-incubation buffer are added and cells are further incubated at room temperature for 1 h. Incubation is stopped by addition of HTRF reagents diluted in the lysis buffer, followed by incubation for 1 h and measurements of fluorescence at […]. The potency of the agonists is determined as the agonist concentration that gives 50% activation of the hGPR119 mediated cAMP increase (EC50).

The next series deals with GLUTag cells. Description: Glucagon-like peptide 1 secretion in GLUTag cells. It counts as cell-based, murine. The conditions noted are these: Mus musculus, 2 h at 37 C, 5 mM glucose, read-out: EC50 (agonist concentration that gives 50% increase in GLP-1). As for the experimental part:
Effects of GPR119 agonists on glucagon-like peptide 1 (GLP-1) secretion are determined in vitro in GLUTag cells. GLUTag cells are an immortalized murine intestinal enteroendocrine cell line that express the preproglucagon gene and secrete GLP-1 in a regulated manner (Brubaker P L, Schloos J, Drucker D J. Regulation of glucagon-like peptide-1 synthesis and secretion in the GLUTag enteroendocrine cell line. Endocrinology. 1998 139:4108-14). To measure GLP-1 secretion, 15,000 cells/well are seeded in 96-well-plate and incubated for 3 days in DMEM supplemented with 10% FBS and 1% Glutamine. On the day of the experiment, cells are washed twice with the incubation buffer, EBSS supplemented with 5 mM glucose and 0.1% BSA. 150 μL of the incubation buffer containing test compounds is added to each well and cells are incubated at 37° C. for 2 h. After incubation, the supernatant is collected and filtered using 96-well-filter-plates. GLP-1 content in the filtrate is determined with the Mouse/Rat Total GLP-1 Assay (Meso Scale Discovery). The potency of the GPR119 agonists to stimulate GLP-1 secretion is determined as the agonist concentration that gives 50% increase in GLP-1 (EC50).

For another series, the system named is plasma glucose. Description: Mouse Oral Glucose Tolerance Test (OGTT). Type of series: in vivo, C57BL/6 mice. As to the method: Normal C57BL/6 mice are fasted overnight, randomized into groups (n=6) and orally dosed with vehicle (1% HEC, 0.25% tween 80, 0.05% antifoam) or 0.9, 2, 6 and 18 mg/kg GPR119 agonist suspended in vehicle. 30 minutes after the compound is administered, mice are dosed orally with a 50% dextrose solution at 3 g/kg. At various times (0, 20, 40, or 60 minutes post glucose), the mice are restrained in cotton gloves or paper towels and 1 mm or less of the tail is cut. A small drop of blood is placed onto Accu-Chek® glucometers (Roche model 22-044217) for glucose measurements. Three glucometers are used to read glucose in each collected sample, with the median value being reported as the final glucose value. Area under the plasma glucose curve (glucose AUC) is calculated for each group and the percentage decrease in the glucose AUC versus the control group is used as a measure of efficacy of the compound to decrease plasma glucose.

Series [1] is described as follows: Oral bioavailability in Beagle dogs. Type of series: in vivo. The conditions noted are these: dog, plasma, 1 mg/kg IV, 3 mg/kg oral gavage. The text has this: (§1) Methods for accessing oral bioavailability are well appreciated in the art. One such reference is Medicinal Research Reviews Vol 21 No. 5 382-396 (2001). The oral bioavailability of compounds of the present invention may be estimated essentially as follows.
(§2) Cohorts of three 250-400 gram male Sprague-Dawley rats or approximately 10 kg Beagle dogs (female or male) are used. […] Dogs are IV administered the compounds by cannulated cephalic vein and blood collections are by jugular vein. Animals are first IV dosed at 1 mg/kg and blood samples (0.1 to 0.2 mL) are then collected using EDTA as an anticoagulant at 0.0830, 0.25, 0.50, 1, 2, 4, 8, 12, and 24 h. After at least two days and overnight fasting, the animals are dosed at 3 mg/kg by oral gavage. Blood samples (0.1 to 0.2 mL) are then collected using EDTA as an anticoagulant at 0.25, 0.50, 1, 2, 4, 6, 8, 12, and 24 h. During the course of a study the total of blood (mL) collected is not to exceed 1% of total body weight in grams.
(§3) Compound plasma concentrations are measured by LC/MS/MS assays. Data are then analyzed using standard non-compartmental pharmacokinetic analysis. Oral bioavailability is calculated as: (AUC0-inifinity, oral/AUC0-inifinity, IV)×(Dose, IV./Dose, oral)×100%

Another series relates to total GIP. Kind of series: Mouse Gastric Inhibitory Polypeptide (GIP) assay. As to conditions: male C57BL/6 mice, 0.5-6 h. Type of series: in vivo. As to the method:
Male C57BL/6 mice (8-10 weeks of age, n=20/dose level, n=5/time point) are fasted overnight (16 hr), weighed the following morning, and then orally dosed with vehicle (1% HEC) or various doses of test article at 5 mL/kg. Animals are euthanized by CO2 asphyxiation for 1 minute, and then blood is collected by cardiac puncture at various times (0.5, 1.5, 3, and 6 h post compound dose) into EDTA plasma tubes containing 10 μL/mL DPP4 inhibitor (Millipore, DPP4-010) and 1.1×10^5 KIU/mL aprotinin. Blood samples are kept on ice until plasma is separated by centrifugation at 3000×g for 5 min. Resulting plasma samples are placed into 96-well plates and stored at −20° C. until analyzed. Measurements of total GIP (measured by Millipore kit EZRMGIP-55K) are performed for each time-point. For each treatment group, the AUC for GIP is determined by applying the trapezoid rule to the timepoint-specific average GIP levels. Potencies were estimated using piecewise linear interpolation across the collection of calculated GIP AUCs above vehicle from a dose response study. Compound potency is defined as the dose and/or concentration of compound that yielded an increase of 350 pg*hr/mL above the vehicle group GIP AUC over the timecourse of the experiment.

The subject of series [2] is Diet-Induced Obese (DIO) mice. Description: Chronic treatment of Diet-Induced Obese (DIO) mice. Type of series: in vivo, C57/BL6 mice. The conditions noted are these: 30 mg/kg once daily, 3 weeks. As for the experimental part: DIO male C57/BL6 mice are maintained on a calorie-rich diet and have free access to food and water for at least 2 weeks before randomization into groups by weight (n=8) and treatment. Animals are individually housed in a temperature-controlled (24° C.) facility with 12 hour light, 12 hour dark cycle. Body weights range from 34-40 g. Mice are administrated once daily vehicle (1% HEC), 30 mg/kg GPR119 agonist, 30 mg/kg DPPIV inhibitor or a combination of 30 mg/kg GPR119 agonist and 30 mg/kg DPPIV inhibitor. Treatment continues for 3 weeks. Food and body weights are recorded daily before dark photoperiod. Cumulative body weight change is calculated as the daily body weight minus body weight before treatment for each animal and presented as an average for the group. Food intake is measured daily for each animal and combined with the total amount of food consumed by that animal from all previous days to yield cumulative food intake, which is then averaged for the group. At the end of the study OGTT is performed after overnight fasting.

Series [3] is described as follows: Oral bioavailability in Sprague-Dawley rats. The conditions noted are these: male, rat, plasma, 1 mg/kg IV, 3 mg/kg oral gavage. It counts as in vivo.
Source text: as §1, §2, §3

Where [4] appears, read: oral dosing 30 min before 3 g/kg dextrose, normal C57BL/6 mice.

`CC(Oc1ccc(C2=CCN(S(C)(=O)=O)CC2)cc1)C1CCN(CC(C)(C)F)CC1` (single isomer, unassigned) [Example 8, 4-(4-{1-[1-(2-Fluoro-2-methyl-propyl)-piperidin-4-yl]-ethoxy}-phenyl)-1-methanesulfonyl-1,2,3,6-tetrahydro-pyridine]: the EC50 on human GPR119 was found to be 1.1 nM.
As to `CC(F)(F)CN1CCC(COc2ccc(C3=CCN(S(C)(=O)=O)CC3)cc2)CC1` [Example 9, 4-{4-[1-(2,2-Difluoro-propyl)-piperidin-4-ylmethoxy]-phenyl}-1-methanesulfonyl-1,2,3,6-tetrahydro-pyridine], in the series on GLUTag cells, the EC50 stood at 36.8 nM.
Consider `CC(C)(F)CN1CCC(COc2ccc(C3=CCN(S(C)(=O)=O)CC3)nc2)CC1` [Example 6, 5-[1-(2-Fluoro-2-methyl-propyl)-piperidin-4-ylmethoxy]-1′-methanesulfonyl-1′,2′,3′,6′-tetrahydro-[2,4′]bipyridinyl], for which the ED50 in the series with plasma glucose (Mus musculus, oral, doses 0.9, 2, 6 and 18 mg/kg, normal C57BL/6 mice, read-out: ED50 (dose which produces a 50% decrease in glucose area under the curve)) came out at 0.4 mg/kg. In addition, in the series on plasma glucose (setting [4]), the glucose tolerance result was “improved glucose tolerance” and the postprandial plasma glucose entry is “significantly decreased”. The fasting plasma glucose result with plasma glucose (oral dosing, normal C57BL/6 mice fasted overnight) is “did not influence”. Further, the EC50 in the series on GLUTag cells came to 62.7 nM. For the same molecule, the bioavailability in series [1] stood at 90%. In addition, in the series on total GIP (1.6 mg/kg oral dose), the “increase in GIP AUC over vehicle” value came out at 422 pg·h/mL. The EC50 at human GPR119 came out at 0.95 nM. In addition, in series [2], the body weight entry is “mild decrease” and the food intake result is “mild decrease”. Moreover, the plasma glucose levels result in series [2] (OGTT at end of study) is “did not significantly modify”.
Turning to `N[C@@H](CC(=O)N1CCn2c(nnc2C(F)(F)F)C1)Cc1cc(F)c(F)cc1F` [Sitagliptin, sitagliptin, reference compound], in series [2], the body weight result was “did not alter” and the food intake entry is recorded as “did not alter”.
For the molecule `CC(C)(CN1CCC(COc2ccc(C3=CCN(S(C)(=O)=O)CC3)nc2)CC1)C(F)(F)F` [Example 3, 1′-Methanesulfonyl-5-[1-(3,3,3-trifluoro-2,2-dimethyl-propyl)-piperidin-4-ylmethoxy]-1′,2′,3′,6′-tetrahydro-[2,4′]bipyridinyl], the “increase in GIP AUC over vehicle” value with total GIP (10 mg/kg oral dose) came to 762 pg·h/mL.
As to `CS(=O)(=O)N1CC=C(c2ccc(OCC3CCN(CC4(F)CCCC4)CC3)cc2)CC1` [Example 1, 4-{4-[1-(1-Fluoro-cyclopentylmethyl)-piperidin-4-ylmethoxy]-phenyl}-1-methanesulfonyl-1,2,3,6-tetrahydro-pyridine], the EC50 on human GPR119 is 4.61 nM.
In the case of `CC(C)(F)CN1CCC(COc2ccc(C3=CCN(S(C)(=O)=O)CC3)cc2F)CC1` [Example 7, 4-{3-Fluoro-4-[1-(2-fluoro-2-methyl-propyl)-piperidin-4-ylmethoxy]-phenyl}-1-methanesulfonyl-1,2,3,6-tetrahydro-pyridine], at human GPR119, the EC50 was found to be 2.13 nM.
In series [3], `CS(=O)(=O)N1CC=C(c2ccc(OCC3CCN(CC4(C(F)(F)F)CC4)CC3)cc2)CC1` [Example 10, 1-Methanesulfonyl-4-{4-[1-(1-trifluoromethyl-cyclopropylmethyl)-piperidin-4-ylmethoxy]-phenyl}-1,2,3,6-tetrahydro-pyridine] yielded a bioavailability of 53%. In addition, in the series on total GIP (10 mg/kg oral dose), the “increase in GIP AUC over vehicle” value was 762 pg·h/mL. For the same molecule, the EC50 on human GPR119 amounted to 0.95 nM.
